{"source": "patent US11129897B2", "about": "“Fast-acting plant-based medicinal compounds and nutritional supplements” (RECEPTOR HOLDINGS, INC., priority 2016, dated 2021)", "key": {"[1]": {"conditions": "versus molecule without SNAC; in words; cited from earlier work"}, "[2]": {"conditions": "cited from earlier work"}, "study participants [3]": {"system": "study participants", "assay": "Onset and duration of action of orally administered Cannabis/SNAC composition at a low SNAC dose (Example 3, 100 mg SNAC)", "format": "in vivo, human", "conditions": "oral; 100 mg SNAC with Cannabis concentrate (8 mg THC)", "experimental": "This study was designed to assess the utility of SNAC in enabling a rapid-acting oral form of Cannabis at a low dose.\nSelection of Participants. Three study participants were recruited to ingest Cannabis compositions and record the onset, duration, and intensity of Cannabis-induced euphoria and/or dysphoria.\n(§1) Formulations. The selected Cannabis concentrate is commercially available and was provided to participants in an ethanol solution. The concentrate contains 8 mg THC per dose. It was selected because it contains a high percentage of THC, which provides a noticeable effect on user-reported “euphoria”.\n(§2) Methods. For the Control experiment, each participant mixed the Cannabis concentrate with 15 ml (one tablespoon) of aqueous ethanol, and immediately swallowed the mixture.\n(§3) For both the Control experiment and the Test experiment, each participant recorded the time of dose administration, the time of onset of euphoria and/or dysphoria, and the observed level of euphoria and/or dysphoria in fifteen minute intervals for five hours following administration of the Cannabis dose. Euphoria and dysphoria were reported using a scale value, in a range from 1-5."}, "study participants [4]": {"system": "study participants", "assay": "Onset and duration of action of orally administered Cannabis/SNAC composition (Example 2, 200 mg SNAC)", "format": "in vivo, human", "conditions": "oral; 200 mg SNAC with Cannabis concentrate (8 mg THC)", "experimental": "This study was designed to assess the utility of SNAC in enabling a rapid-acting oral form of Cannabis.\nSelection of Participants. Six study participants were recruited to ingest Cannabis compositions and record the onset, duration, and intensity of Cannabis-induced euphoria and/or dysphoria.\nas §1, §2\nas §3, with “1-10.” for “1-5.”"}}}
{"compound": "CCCCCN(C)CCC(O)(P(=O)(O)O)P(=O)(O)O", "note": "[ibandronate]", "values": [{"measurement": "absorption when co-administered with an N-acylated fatty amino acid (e.g., SNAC)", "setting": "[1]", "result": "improved absorption"}]}
{"compound": "PTH 1-34: parathyroid hormone 1-34", "values": [{"measurement": "absorption when co-administered with an N-acylated fatty amino acid (e.g., SNAC)", "setting": "[1]", "result": "improved absorption"}]}
{"compound": "GLP-1: GLP-1, water-soluble molecule with SNAC-improved absorption", "values": [{"measurement": "absorption when co-administered with an N-acylated fatty amino acid (e.g., SNAC)", "setting": "[1]", "result": "improved absorption"}]}
{"compound": "heparin", "values": [{"measurement": "absorption when co-administered with an N-acylated fatty amino acid (e.g., SNAC)", "setting": "[1]", "result": "improved absorption"}]}
{"compound": "CCCCCc1cc(O)c2c(c1)OC(C)(C)[C@@H]1CCC(C)=C[C@@H]21", "note": "[THC, delta-9-tetrahydrocannabinol]", "values": [{"measurement": "appetite stimulant effect may continue after administration", "setting": "[2]; after oral administration", "result": "≥ 24", "unit": "h"}, {"measurement": "duration of action for psychoactive effects", "setting": "[2]; after oral administration", "result": "4 to 6", "unit": "h"}, {"measurement": "peak effect (time)", "setting": "[2]; after oral administration", "result": "2 to 4", "unit": "h"}, {"measurement": "administered dose that reaches the systemic circulation", "setting": "[2]; oral, first pass hepatic metabolism and poor aqueous solubility", "result": "10-20%"}]}
{"compound": "calcitonin: calcitonin, water-soluble molecule with SNAC-improved absorption", "values": [{"measurement": "absorption when co-administered with an N-acylated fatty amino acid (e.g., SNAC)", "setting": "[1]", "result": "improved absorption"}]}
{"compound": "rhGH: recombinant human growth hormone", "values": [{"measurement": "absorption when co-administered with an N-acylated fatty amino acid (e.g., SNAC)", "setting": "[1]", "result": "improved absorption"}]}
{"compound": "MT-II", "values": [{"measurement": "absorption when co-administered with an N-acylated fatty amino acid (e.g., SNAC)", "setting": "[1]", "result": "improved absorption"}]}
{"compound": "vitamin B12", "values": [{"measurement": "absorption when co-administered with an N-acylated fatty amino acid (e.g., SNAC)", "setting": "[1]", "result": "improved absorption"}]}
{"compound": "peptide yy: peptide yy, water-soluble molecule with SNAC-improved absorption", "values": [{"measurement": "absorption when co-administered with an N-acylated fatty amino acid (e.g., SNAC)", "setting": "[1]", "result": "improved absorption"}]}
{"compound": "sodium N-[8-(2-hydroxybenzoyl) amino] caprylate [SNAC]", "values": [{"measurement": "effect of the absorption enhancer on the duration of action of Cannabis", "setting": "study participants [3]", "result": "no effect on the duration of action"}, {"measurement": "effect of the absorption enhancer on the duration of action of Cannabis", "setting": "study participants [4]", "result": "no effect on the duration of action"}]}
